From the NIST ThermoML archive (doi:10.1021/acs.jced.6b01058)
± gives the expanded uncertainty stated by the source.

Columns and labels:
[1] = wn = mass fraction of the nth substance listed; settings: 85 kPa, Liquid, Vibrating tube method
[2] = mn = molality of the nth substance listed, in mol/kg; settings: 85 kPa, Liquid, Vibrating tube method
[3] = 85 kPa, Liquid, Vibrating tube method

CCO [ethanol] + O
mass density ([1]; 298.15 K, w1 = 0.04): 990.13 ± 3.3 kg/m3
mass density ([1]; 298.15 K, w1 = 0.08): 983.9 ± 3.1 kg/m3
mass density ([1]; 298.15 K, w1 = 0.16): 972.57 ± 3 kg/m3
mass density ([1]; 303.15 K, w1 = 0.04): 988.79 ± 3.3 kg/m3
mass density ([1]; 303.15 K, w1 = 0.08): 982.43 ± 3.2 kg/m3
mass density ([1]; 303.15 K, w1 = 0.16): 970.69 ± 3.1 kg/m3
mass density ([1]; 308.15 K, w1 = 0.04): 987.24 ± 3.3 kg/m3
mass density ([1]; 308.15 K, w1 = 0.08): 980.77 ± 3.2 kg/m3
mass density ([1]; 308.15 K, w1 = 0.16): 968.6 ± 3.2 kg/m3
mass density ([1]; 313.15 K, w1 = 0.04): 985.42 ± 3.4 kg/m3
mass density ([1]; 313.15 K, w1 = 0.08): 978.85 ± 3.3 kg/m3
mass density ([1]; 313.15 K, w1 = 0.16): 966.4 ± 3.3 kg/m3

CO [methanol] + O
mass density ([1]; 298.15 K, w1 = 0.04): 989.97 ± 3.7 kg/m3
mass density ([1]; 298.15 K, w1 = 0.08): 982.92 ± 3.6 kg/m3
mass density ([1]; 298.15 K, w1 = 0.16): 969.42 ± 3.5 kg/m3
mass density ([1]; 303.15 K, w1 = 0.04): 988.62 ± 3.7 kg/m3
mass density ([1]; 303.15 K, w1 = 0.08): 981.47 ± 3.6 kg/m3
mass density ([1]; 303.15 K, w1 = 0.16): 967.61 ± 3.6 kg/m3
mass density ([1]; 308.15 K, w1 = 0.04): 987.03 ± 3.7 kg/m3
mass density ([1]; 308.15 K, w1 = 0.08): 979.91 ± 3.6 kg/m3
mass density ([1]; 308.15 K, w1 = 0.16): 965.92 ± 3.7 kg/m3
mass density ([1]; 313.15 K, w1 = 0.04): 985.22 ± 3.7 kg/m3
mass density ([1]; 313.15 K, w1 = 0.08): 978.12 ± 3.7 kg/m3
mass density ([1]; 313.15 K, w1 = 0.16): 963.68 ± 3.8 kg/m3

CCCO [propan-1-ol] + O
mass density ([1]; 298.15 K, w1 = 0.04): 990.59 ± 2.8 kg/m3
mass density ([1]; 298.15 K, w1 = 0.08): 985.46 ± 3 kg/m3
mass density ([1]; 298.15 K, w1 = 0.16): 973.64 ± 3.1 kg/m3
mass density ([1]; 303.15 K, w1 = 0.04): 989.14 ± 2.8 kg/m3
mass density ([1]; 303.15 K, w1 = 0.08): 983.86 ± 3.1 kg/m3
mass density ([1]; 303.15 K, w1 = 0.16): 971.45 ± 3.3 kg/m3
mass density ([1]; 308.15 K, w1 = 0.04): 987.49 ± 2.8 kg/m3
mass density ([1]; 308.15 K, w1 = 0.08): 982.13 ± 3.3 kg/m3
mass density ([1]; 308.15 K, w1 = 0.16): 969.08 ± 3.4 kg/m3
mass density ([1]; 313.15 K, w1 = 0.04): 985.62 ± 2.9 kg/m3
mass density ([1]; 313.15 K, w1 = 0.08): 980.12 ± 3.3 kg/m3
mass density ([1]; 313.15 K, w1 = 0.16): 966.84 ± 3.5 kg/m3

CCCCCCCCCCCC(=O)N(C)CC(=O)[O-].[Na+] [sodium [dodecanoyl(methyl)amino]acetate] + O
mass density ([2]; 298.15 K, m1 = 0.02): 998.13 ± 1 kg/m3
mass density ([2]; 298.15 K, m1 = 0.03): 998.42 ± 1 kg/m3
mass density ([2]; 298.15 K, m1 = 0.04): 998.73 ± 1 kg/m3
mass density ([2]; 298.15 K, m1 = 0.05): 999.03 ± 1 kg/m3
mass density ([2]; 298.15 K, m1 = 0.06): 999.43 ± 1 kg/m3
mass density ([2]; 298.15 K, m1 = 0.07): 999.67 ± 1 kg/m3
mass density ([2]; 298.15 K, m1 = 0.08): 1000.07 ± 1 kg/m3
mass density ([2]; 298.15 K, m1 = 0.09): 1000.37 ± 1 kg/m3
mass density ([2]; 303.15 K, m1 = 0.02): 996.67 ± 1 kg/m3
mass density ([2]; 303.15 K, m1 = 0.03): 996.99 ± 1 kg/m3
mass density ([2]; 303.15 K, m1 = 0.04): 997.32 ± 1 kg/m3
mass density ([2]; 303.15 K, m1 = 0.05): 997.61 ± 1 kg/m3
mass density ([2]; 303.15 K, m1 = 0.06): 997.96 ± 1 kg/m3
mass density ([2]; 303.15 K, m1 = 0.07): 998.27 ± 1 kg/m3
mass density ([2]; 303.15 K, m1 = 0.08): 998.59 ± 1 kg/m3
mass density ([2]; 303.15 K, m1 = 0.09): 998.88 ± 1 kg/m3
mass density ([2]; 308.15 K, m1 = 0.02): 995.04 ± 1 kg/m3
mass density ([2]; 308.15 K, m1 = 0.03): 995.33 ± 1 kg/m3
mass density ([2]; 308.15 K, m1 = 0.04): 995.67 ± 1 kg/m3
mass density ([2]; 308.15 K, m1 = 0.05): 995.93 ± 1 kg/m3
mass density ([2]; 308.15 K, m1 = 0.06): 996.27 ± 1 kg/m3
mass density ([2]; 308.15 K, m1 = 0.07): 996.56 ± 1 kg/m3
mass density ([2]; 308.15 K, m1 = 0.08): 996.88 ± 1 kg/m3
mass density ([2]; 308.15 K, m1 = 0.09): 997.14 ± 1 kg/m3
mass density ([2]; 313.15 K, m1 = 0.02): 993.18 ± 1 kg/m3
mass density ([2]; 313.15 K, m1 = 0.03): 993.48 ± 1 kg/m3
mass density ([2]; 313.15 K, m1 = 0.04): 993.8 ± 1 kg/m3
mass density ([2]; 313.15 K, m1 = 0.05): 994.06 ± 1 kg/m3
mass density ([2]; 313.15 K, m1 = 0.06): 994.41 ± 1 kg/m3
mass density ([2]; 313.15 K, m1 = 0.07): 994.7 ± 1 kg/m3
mass density ([2]; 313.15 K, m1 = 0.08): 994.95 ± 1 kg/m3
mass density ([2]; 313.15 K, m1 = 0.09): 995.27 ± 1 kg/m3

O [water]
mass density ([3]; 298.15 K): 997.29 ± 1 kg/m3
mass density ([3]; 303.15 K): 995.9 ± 1 kg/m3
mass density ([3]; 308.15 K): 994.27 ± 1 kg/m3
mass density ([3]; 313.15 K): 992.46 ± 1 kg/m3
